This test deals with Jak2 (human Jak2 kinase domain, amino acids 808-1132) (Homo sapiens (Human), UniProt O60674). The test is described as follows: Jak2 inhibition assay (Omnia kinase assay). It is filed as biochemical. The settings on record: read-out: Jak2 Enzyme (% inhibition at 1000 nM), Table 1; 1000 nM test compound. Here is the method: The assays described in Examples C, D, E and F for the determination of JAK1, JAK2, JAK3 and Tyk2 kinase activity, respectively, utilized the Omnia® Kinase fluorescence peptide substrate-based technology (Invitrogen). […] The reactions were therefore read at excitation 360 nm and emission was measured at 485 nm every 50 seconds for 45 minutes using a PerkinElmer EnVision Multilabel Plate Reader.
Chain of Jak2 (human Jak2 kinase domain, amino acids 808-1132) (O60674 808-1132): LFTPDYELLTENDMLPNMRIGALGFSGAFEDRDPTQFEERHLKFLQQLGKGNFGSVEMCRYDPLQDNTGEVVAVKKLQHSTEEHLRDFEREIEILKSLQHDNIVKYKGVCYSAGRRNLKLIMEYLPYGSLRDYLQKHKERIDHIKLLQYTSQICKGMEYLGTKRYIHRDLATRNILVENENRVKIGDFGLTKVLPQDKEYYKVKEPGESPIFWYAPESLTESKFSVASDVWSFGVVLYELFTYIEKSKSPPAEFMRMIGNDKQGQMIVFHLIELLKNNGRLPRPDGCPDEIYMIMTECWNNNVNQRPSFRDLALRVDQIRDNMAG
The final buffer conditions for each of the JAK1, JAK2, JAK3 and Tyk2 assays were as follows: 25 mM HEPES, pH 7.4, 10 mM MgCl2, 0.01% Triton X-100 and 1 mM DTT.
Two-μL aliquots of these were transferred to a fresh plate for a ten-fold intermediate dilution with assay buffer. Five-μL aliquots of the diluted compounds were then transferred to 20-μL of assay mixtures described in Examples C, D, E and F for a final concentration of DMSO of 2%. […] For each plate, percent of control (POC) values were calculated for each well according to the following equation:
where Xmax=Average Uninhibited Controls • Xmin=Average Background IC50's were estimated from the POC's using a standard 4-parameter logistic model:
where A=Minimum Y (Bottom Asymptote) • B=Maximum Y (Top Asymptote) • C=EC50 • D=Slope Factor • X=Compound Concentration (nM) • Y=POC
The IC50 is defined as the concentration of inhibitor at which the POC equals 50 for the fitted curve.
Compounds of Formula I were screened for their ability to inhibit Jak2 using the general enzyme inhibition assay method, in which the assay mixture contained 500 μM ATP, 10 μM Omnia® Y7 peptide (Catalog # IVGN KNZ3071C, Invitrogen Corporation, Carlsbad, Calif.) and 4 nM Jak2 in a total volume of 20 μL. Human Jak2 kinase domain comprising amino acids 808-1132 was purchased from Invitrogen Corporation, Carlsbad, Calif. (catalog # IVGN PV4210).
On to `CC1(C)OCC(COc2ccc(F)cc2[C@H]2CCCN2c2ccn3ncc(C(N)=O)c3n2)O1` (stereo partly drawn) [Example 205, 5-((2R)-2-(2-((2,2-dimethyl-1,3-dioxolan-4-yl)methoxy)-5-fluorophenyl)pyrrolidin-1-yl)pyrazolo[1,5-a]pyrimidine-3-carboxamide], for which the inhibition at 1 µM came out at 7.2%.
For `CC(C)(C)NC(=O)c1cnn2ccc(N3CCC[C@@H]3c3cc(F)c[nH]c3=O)nc12` [Example 202, (R)—N-tert-butyl-5-(2-(5-fluoro-2-oxo-1,2-dihydropyridin-3-yl)pyrrolidin-1-yl)pyrazolo[1,5-a]pyrimidine-3-carboxamide] the value was 11.5%.
As to `CC(C)[C@@H](CO)NC(=O)c1cnn2ccc(N3CCC[C@@H]3c3cc(F)ccc3F)nc12` [Example 179, 5-((R)-2-(2,5-difluorophenyl)pyrrolidin-1-yl)-N-((S)-1-hydroxy-3-methylbutan-2-yl)pyrazolo[1,5-a]pyrimidine-3-carboxamide], the inhibition at 1 µM is -0.2%.
The figure for `O=C(N[C@H]1CC[C@H](O)C1)c1cnn2ccc(N3CCC[C@@H]3c3cncc(F)c3)nc12` [Example 105, 5-((R)-2-(5-fluoropyridin-3-yl)pyrrolidin-1-yl)-N-((1S,3S)-3-hydroxycyclopentyl)pyrazolo[1,5-a]pyrimidine-3-carboxamide] is 18.7%.
For `O=C(NCCO)c1cnn2ccc(N3CCCC3c3cc(F)ccc3F)nc12` (stereo not drawn) [Example 165, 5-(2-(2,5-difluorophenyl)pyrrolidin-1-yl)-N-(2-hydroxyethyl)pyrazolo[1,5-a]pyrimidine-3-carboxamide] the value was 26.8%.
The figure for `COc1ncc(F)cc1[C@H]1CCCN1c1ccn2ncc(C(=O)NCCCNC(=O)OC(C)(C)C)c2n1` [Example 141, (R)-tert-butyl 3-(5-(2-(5-fluoro-2-methoxypyridin-3-yl)pyrrolidin-1-yl)pyrazolo[1,5-a]pyrimidine-3-carboxamido)propylcarbamate] is 9.4%.
On to `C[C@H](O)[C@@H](CO)NC(=O)c1cnn2ccc(N3CCC[C@@H]3c3cc(F)ccc3F)nc12` [Example 176, 5-((R)-2-(2,5-difluorophenyl)pyrrolidin-1-yl)-N-((2R,3S)-1,3-dihydroxybutan-2-yl)pyrazolo[1,5-a]pyrimidine-3-carboxamide], for which the inhibition at 1 µM is 6.3%.
The figure for `COc1ncc(F)cc1[C@H]1CCCN1c1ccn2ncc(C(=O)NCCCO)c2n1` [Example 148, (R)-5-(2-(5-fluoro-2-methoxypyridin-3-yl)pyrrolidin-1-yl)-N-(3-hydroxypropyl)pyrazolo[1,5-a]pyrimidine-3-carboxamide] is 44.3%.
For `CNC(=O)c1cnn2ccc(N3C[C@@H](O)C[C@@H]3c3cccc(F)c3)nc12` [Example 218, 5-((2R,4S)-2-(3-fluorophenyl)-4-hydroxypyrrolidin-1-yl)-N-methylpyrazolo[1,5-a]pyrimidine-3-carboxamide] the value was 24.6%.
For `CC(C)(C#N)NC(=O)c1cnn2ccc(N3CCC[C@@H]3c3cncc(F)c3)nc12` [Example 69, (R)—N-(2-cyanopropan-2-yl)-5-(2-(5-fluoropyridin-3-yl)pyrrolidin-1-yl)pyrazolo[1,5-a]pyrimidine-3-carboxamide] the value was 6%; for `C[C@@H](CO)NC(=O)c1cnn2ccc(N3CCC[C@@H]3c3cc(F)ccc3F)nc12` [Example 177, 5-((R)-2-(2,5-difluorophenyl)pyrrolidin-1-yl)-N-((S)-1-hydroxypropan-2-yl)pyrazolo[1,5-a]pyrimidine-3-carboxamide], 26.2%; for `COc1ccc(F)cc1[C@H]1CCCN1c1ccn2ncc(C(=O)NCC(C)(C)O)c2n1` [Example 49, (R)-5-(2-(5-fluoro-2-methoxyphenyl)pyrrolidin-1-yl)-N-(2-hydroxy-2-methylpropyl)pyrazolo[1,5-a]pyrimidine-3-carboxamide], 17.2%.
As to `COCCOc1cc(F)cc([C@H]2CCCN2c2ccn3ncc(C(N)=O)c3n2)c1` [Example 78, (R)-5-(2-(3-fluoro-5-(2-methoxyethoxy)phenyl)pyrrolidin-1-yl)pyrazolo[1,5-a]pyrimidine-3-carboxamide], the inhibition at 1 µM is 5.8%.
For `O=C(NC1CCOCC1)c1cnn2ccc(N3CCC[C@@H]3c3cncc(F)c3)nc12` [Example 72, (R)-5-(2-(5-fluoropyridin-3-yl)pyrrolidin-1-yl)-N-(tetrahydro-2H-pyran-4-yl)pyrazolo[1,5-a]pyrimidine-3-carboxamide] the value was 11.7%; for `NC(=O)c1cnn2ccc(N3CCC[C@@H]3c3cncc(F)c3)nc12` [Example 117, (R)-5-(2-(5-fluoropyridin-3-yl)pyrrolidin-1-yl)pyrazolo[1,5-a]pyrimidine-3-carboxamide], -1.4%.
As to `Cc1ccc(CNC(=O)c2cnn3ccc(N4CCC[C@@H]4c4cc(F)ccc4F)nc23)o1` [Example 5, (R)-5-(2-(2,5-difluorophenyl)pyrrolidin-1-yl)-N-((5-methylfuran-2-yl)methyl)pyrazolo[1,5-a]pyrimidine-3-carboxamide], the inhibition at 1 µM worked out at 14.2%.
The figure for `CC(C)(C)NC(=O)c1cnn2ccc(N3C[C@H](O)C[C@@H]3c3cccc(F)c3)nc12` [Example 42, N-tert-butyl-5-((2R,4R)-2-(3-fluorophenyl)-4-hydroxypyrrolidin-1-yl)pyrazolo[1,5-a]pyrimidine-3-carboxamide] is 7.7%.
For `COc1ncc(F)cc1[C@H]1CCCN1c1ccn2ncc(C(=O)NC[C@H](C)O)c2n1` [Example 156, 5-((R)-2-(5-fluoro-2-methoxypyridin-3-y1)pyrrolidin-1-yl)-N-((S)-2-hydroxypropyl)pyrazolo[1,5-a]pyrimidine-3-carboxamide], the inhibition at 1 µM turned out to be 16.1%.
The figure for `COc1ncc(F)cc1[C@H]1CCCN1c1ccn2ncc(C(=O)N3CC(O)C3)c2n1` [Example 139, (R)-(5-(2-(5-fluoro-2-methoxypyridin-3-yl)pyrrolidin-1-yl)pyrazolo[1,5-a]pyrimidin-3-yl)(3-hydroxyazetidin-1-yl)methanone] is -0.4%; for `C[C@H](NC(=O)c1cnn2ccc(N3CCC[C@@H]3c3cncc(F)c3)nc12)C(F)(F)F` [Example 130, 5-((R)-2-(5-fluoropyridin-3-yl)pyrrolidin-1-yl)-N-((S)-1,1,1-trifluoropropan-2-yl)pyrazolo[1,5-a]pyrimidine-3-carboxamide] it is 27.9%; for `CCc1ncc(F)cc1[C@H]1CCCN1c1ccn2ncc(C(=O)N[C@H]3CC[C@H](O)CC3)c2n1` [Example 199, 5-((R)-2-(2-ethyl-5-fluoropyridin-3-yl)pyrrolidin-1-yl)-N-((trans)-4-hydroxycyclohexyl)pyrazolo[1,5-a]pyrimidine-3-carboxamide] it is 38.8%.
The figure for `O=C(c1cnn2ccc(N3CCC[C@@H]3c3cncc(F)c3)nc12)N1CCCC1` [Example 94, (R)-(5-(2-(5-fluoropyridin-3-yl)pyrrolidin-1-yl)pyrazolo[1,5-a]pyrimidin-3-yl)(pyrrolidin-1-yl)methanone] is 4.4%.
Consider `C[C@@H](O)CNC(=O)c1cnn2ccc(N3CCCC3c3cc(F)ccc3F)nc12` (stereo in doubt) [Example 167, 5-((R)-2-(2,5-difluorophenyl)pyrrolidin-1-yl)-N-(2-hydroxypropyl)pyrazolo[1,5-a]pyrimidine-3-carboxamide], for which the inhibition at 1 µM is 9.8%.
The figure for `CC1(C)CC[C@H](c2cc(F)ccc2F)N1c1ccn2ncc(C(N)=O)c2n1` [Example 67, (R)-5-(5-(2,5-difluorophenyl)-2,2-dimethylpyrrolidin-1-yl)pyrazolo[1,5-a]pyrimidine-3-carboxamide] is 22.3%; for `CC(C)(O)CNC(=O)c1cnn2ccc(N3CCC[C@@H]3c3cncc(F)c3)nc12` [Example 111, (R)-5-(2-(5-fluoropyridin-3-yl)pyrrolidin-1-yl)-N-(2-hydroxy-2-methylpropyl)pyrazolo[1,5-a]pyrimidine-3-carboxamide] it is 0.1%.
For the molecule `CC1(C)OCC(COc2cc(F)cc([C@H]3CCCN3c3ccn4ncc(C(=O)NC5CC5)c4n3)c2)O1` (stereo partly drawn) [Example 206, N-cyclopropyl-5-((2R)-2-(3-((2,2-dimethyl-1,3-dioxolan-4-yl)methoxy)-5-fluorophenyl)pyrrolidin-1-yl)pyrazolo[1,5-a]pyrimidine-3-carboxamide], the inhibition at 1 µM was 12.6%.
For `Cn1cc(F)cc([C@H]2CCCN2c2ccn3ncc(C(=O)NC4(C)CC4)c3n2)c1=O` [Example 237, (R)-5-(2-(5-fluoro-1-methyl-2-oxo-1,2-dihydropyridin-3-yl)pyrrolidin-1-yl)-N-(1-methylcyclopropyl)pyrazolo[1,5-a]pyrimidine-3-carboxamide] the value was 51.9%.

For the origin of these results see US10251889B2, “Substituted pyrazolo[1,5-a]pyrimidine compounds as Trk kinase inhibitors” (Array BioPharma, Inc., priority 2009, dated 2019).
